From US4757074A, “Piperazinyl benzyl acids having antihistamine activity” (Burroughs Wellcome Co., priority 1983, dated 1988)

Target: T1, longitudinal muscle from the intact ileum of guinea-pigs (response to histamine) (Cavia porcellus, UniProt P31389)
T1 construct: The longitudinal muscle was isolated from the intact ileum of guinea-pigs; from tissue; host or cells: longitudinal muscle of guinea-pig ileum (Hartley, male)
Assay: In vitro antihistaminic activity (inhibition of histamine concentration-response in isolated ileum longitudinal muscle)
Design: species or system guinea-pigs (Hartley, male)
Details: negative log of the concentration which gives a significant antihistaminic effect; guinea-pig ileum longitudinal muscle; one hour incubation with test compound; Arunlakshana and Schild method; read-out: pA2 (converted)
Description: In vitro antihistaminic activity: The longitudinal muscle was isolated from the intact ileum of guinea-pigs (Hartley, male, 250-400 g) and placed in an organ bath under 300 mg tension. After one hour of equilibration, cumulative concentration-response curves (Van Rossum, J. M., Arch. Int. Pharmacodyn. Ther. 143, 299-330, 1963) to histamine were obtained. Following washing, the tissues were incubated for one hour with the test compound and then a second histamine concentration-response curve was run. Antihistaminic activity was determined as pA2 values by the method of Arunlakshana, O. and Schild, H. O. (Br. J. Pharmacol: 14, 48-58, 1959).

T1 sequence (P31389 whole entry): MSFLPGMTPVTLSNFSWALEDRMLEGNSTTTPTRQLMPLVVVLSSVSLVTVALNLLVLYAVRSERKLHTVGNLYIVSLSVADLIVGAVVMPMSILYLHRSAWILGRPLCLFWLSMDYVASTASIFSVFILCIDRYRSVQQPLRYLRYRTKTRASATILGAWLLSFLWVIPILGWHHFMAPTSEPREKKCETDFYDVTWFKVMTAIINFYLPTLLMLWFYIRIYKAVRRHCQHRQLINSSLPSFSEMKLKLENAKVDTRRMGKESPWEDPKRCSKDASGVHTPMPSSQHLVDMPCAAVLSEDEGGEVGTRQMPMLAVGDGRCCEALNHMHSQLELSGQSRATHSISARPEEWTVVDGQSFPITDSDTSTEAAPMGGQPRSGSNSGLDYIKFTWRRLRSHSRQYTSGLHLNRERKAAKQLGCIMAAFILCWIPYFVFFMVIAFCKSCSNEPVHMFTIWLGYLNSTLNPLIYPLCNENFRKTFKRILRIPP

| Kb [nM] | SMILES |
| --- | --- |
| 158 | CN1CCN(C(c2ccc(Cl)cc2)c2cccc(OCC(=O)O)c2)CC1 (stereo not drawn) [F, 3-(4-Chloro-α-(4-methyl-1-piperazinyl)benzyl)phenoxyacetic acid] |
| 2510 | CN1CCN(C(c2ccc(Cl)cc2)c2ccccc2C(=O)O)CC1 (stereo not drawn) [C, 2-(4-Chloro-α-(4-methyl-1-piperazinyl)benzyl)benzoic acid] |
| 2510 | CN1CCN(C(c2ccc(Cl)cc2)c2ccc(C(=O)O)cc2)CC1 (stereo not drawn) [D, 4-(4-Chloro-α-(4-methyl-1-piperazinyl)benzyl)benzoic acid] |
| 1.58 | Cc1cccc(CN2CCN(C(c3ccc(Cl)cc3)c3cccc(OCC(=O)O)c3)CC2)c1 (stereo not drawn) [G, 3-(4-Chloro-α-(4-(3-methylbenzyl)-1-piperazinyl)benzyl)phenoxyacetic acid] |
| 6.31 | CC(C)(C)c1ccc(CN2CCN(C(c3ccc(Cl)cc3)c3cccc(OCC(=O)O)c3)CC2)cc1 (stereo not drawn) [H, 3-(4-Chloro-α-(4-(4-tert-butylbenzyl)-1-piperazinyl)benzyl)phenoxyacetic acid] |
| 316 | COc1ccc(C(c2cccc(C(=O)O)c2)N2CCN(C)CC2)cc1 (stereo not drawn) [E, 3-(4-Methoxy-α-(4-methyl-1-piperazinyl)benzyl)benzoic acid] |
| 501 | CN1CCN(C(c2ccc(Cl)cc2)c2cccc(/C=C/C(=O)O)c2)CC1 (stereo not drawn) [A, (E)-3-(4-Chloro-α-(4-methyl-1-piperazinyl)-benzyl)cinnamic acid] |
| 398 | CN1CCN(C(c2ccc(Cl)cc2)c2cccc(C(=O)O)c2)CC1 (stereo not drawn) [B, 3-(4-Chloro-α-(4-methyl-1-piperazinyl)benzyl)benzoic acid] |

Target: T1, longitudinal muscle from the intact ileum of guinea-pigs (response to histamine)
Assay: not given
Details: literature value, R. B. Barlow, Introduction to Chemical Pharmacology, 2nd ed., p. 357, 1964; cited from earlier work

| SMILES | pA2 |
| --- | --- |
| CN1CCN(C(c2ccccc2)c2ccc(Cl)cc2)CC1 (stereo not shown) [Chlorcyclizine, 1-(4-Chlorobenzhydryl)-4-methylpiperazine] | 8.6 |

System: not given
Assay: not given
Details: clinical use, most patients; Goodman and Gilman, 4th ed., p. 640, 1970; cited from earlier work

| SMILES | sedation and drowsiness |
| --- | --- |
| CN1CCN(C(c2ccccc2)c2ccc(Cl)cc2)CC1 (stereo not shown) [Chlorcyclizine, 1-(4-Chlorobenzhydryl)-4-methylpiperazine] | produces sedation and drowsiness in varying degrees in most patients |
